Test results reported in patent publication US8487093B2, “β-lactamase inhibitors” (Merck Sharp & Dohme Corp., priority 2008, dated 2013).
Read-outs that look alike come from different tables or passages of the source.

Tests used:
[1] = target: AmpC (P. aeruginosa) (Pseudomonas aeruginosa (strain ATCC 15692 / DSM 22644 / CIP 104116 / JCM 14847 / LMG 12228 / 1C / PRS 101 / PAO1), UniProt P24735); experiment: biochemical
Protocol: The Class C enzyme activities were measured in the presence of the test inhibitor in spectrophotometric assay against the commercially available substrate, nitrocefin. The enzyme AmpC (P. aeruginosa.), and the substrate, were dissolved in 100 mM KH2PO4 buffer (pH 7). The buffer also contains 0.005% BSA. The test inhibitor was dissolved in DMSO and diluted 1:20 in the assay, resulting in a final concentration range of 50 μM to 0.0002 μM. In a 96-well microplate, the test inhibitor was incubated with the beta-lactamase enzyme for 40 minutes at ambient temperature, the substrate solution was added, and the incubation continued for another 40 minutes. […] The IC50 value was determined from semi logarithmic plots of enzyme inhibition versus inhibitor concentration, with a curve generated using a 4-parameter fit.

[2] = target: KPC-2 (K. pneumoniae) (Klebsiella pneumoniae, UniProt Q9F663); experiment: biochemical
KPC-2 (K. pneumoniae), sequence (Q9F663 25-293 limits assumed): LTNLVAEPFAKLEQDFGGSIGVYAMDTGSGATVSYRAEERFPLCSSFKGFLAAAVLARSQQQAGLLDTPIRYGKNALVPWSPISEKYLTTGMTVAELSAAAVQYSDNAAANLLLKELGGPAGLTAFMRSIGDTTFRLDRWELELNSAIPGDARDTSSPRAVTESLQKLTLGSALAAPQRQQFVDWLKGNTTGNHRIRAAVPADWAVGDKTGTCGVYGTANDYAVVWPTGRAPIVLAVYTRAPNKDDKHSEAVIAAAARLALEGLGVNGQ

[3] = Table 3, read-out: P.a. AmpC IC50
[4] = Table 3, read-out: K.p. KPC-2 IC50

AmpC (P. aeruginosa), sequence (P24735 27-397): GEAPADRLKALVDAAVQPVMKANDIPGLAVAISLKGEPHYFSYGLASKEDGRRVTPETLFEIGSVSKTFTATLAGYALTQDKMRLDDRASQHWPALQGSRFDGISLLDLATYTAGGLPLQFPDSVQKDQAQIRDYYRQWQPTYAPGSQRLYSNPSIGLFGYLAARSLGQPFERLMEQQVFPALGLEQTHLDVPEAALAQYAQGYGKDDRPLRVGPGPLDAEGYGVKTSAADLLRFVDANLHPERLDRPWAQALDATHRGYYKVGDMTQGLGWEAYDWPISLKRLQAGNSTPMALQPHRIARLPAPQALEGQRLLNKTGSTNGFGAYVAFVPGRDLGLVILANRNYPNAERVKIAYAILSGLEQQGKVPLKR

O=C(NC1CCCNC1)[C@@H]1CC[C@@H]2CN1C(=O)N2OS(=O)(=O)O (single isomer, unassigned) [Example 19b]
IC50 [1, 3]: 480 nM | IC50 [2, 4]: 240 nM

O=C(NC1CCNC1)[C@@H]1CC[C@@H]2CN1C(=O)N2OS(=O)(=O)O (stereo in doubt) [Example 14, (2S,5R)-7-oxo-N-[(3R)-pyrrolidin-3-yl]-6-(sulfooxy)-1,6-diazabicyclo[3.2.1]octane-2-carboxamide]
IC50 [1, 3]: 110 nM | IC50 ([2]; K.p. KPC-2 IC50, Table 3): 355 nM

O=C(N[C@H]1CCNC[C@H]1F)[C@@H]1CC[C@@H]2CN1C(=O)N2OS(=O)(=O)O [Example 15, (2S,5R)—N-[(3R,4S)-3-Fluoropiperidin-4-yl]-7-oxo-6-(sulfooxy)-1,6-diazabicyclo[3.2.1]octane-2-carboxamide]
IC50 [1]: 49 nM | IC50 [2, 4]: 130 nM

O=C(Nc1ccc2c(c1)CCNC2)[C@@H]1CC[C@@H]2CN1C(=O)N2OS(=O)(=O)O [Example 16, (2S,5R)-7-Oxo-6-(sulfooxy)-N-(1,2,3,4-tetrahydroisoquinolin-6-yl)-1,6-diazabicyclo[3.2.1]octane-2-carboxamide]
IC50 [1]: 14 nM | IC50 [2, 4]: 19 nM

O=C(Nc1ccc(C2CCNCC2)cn1)[C@@H]1CC[C@@H]2CN1C(=O)N2OS(=O)(=O)O [Example 17, (2S,5R)-7-Oxo-N-(5-piperidin-4-ylpyridin-2-yl)-6-(sulfooxy)-1,6-diazabicyclo[3.2.1]octane-2-carboxamide]
IC50 [1, 3]: 6 nM

O=C(OCC1CCNCC1)[C@@H]1CC[C@@H]2CN1C(=O)N2OS(=O)(=O)O [Example 18, Piperidin-4-ylmethyl(2S,5R)-7-oxo-6-(sulfooxy)-1,6-diazabicyclo[3.2.1]octane-2-carboxylate]
IC50 [1, 3]: 180 nM | IC50 [2, 4]: 10 nM

O=C(NC1CCCNC1)[C@@H]1CC[C@@H]2CN1C(=O)N2OS(=O)(=O)O (stereo partly drawn) [Example 19a]
IC50 [1, 3]: 64 nM | IC50 [2, 4]: 480 nM

O=C(NC1CNC1)[C@@H]1CC[C@@H]2CN1C(=O)N2OS(=O)(=O)O [Example 20]
IC50 [1, 3]: 1000 nM | IC50 [2, 4]: 17 nM

O=C(N[C@@H]1CCNC1)[C@@H]1CC[C@@H]2CN1C(=O)N2OS(=O)(=O)O [Example 21]
IC50 [1, 3]: 29100 nM | IC50 ([2]; K.p. KPC-2 IC50, Table 3): 4300 nM

O=C(N[C@@H]1CCCNCC1)[C@@H]1CC[C@@H]2CN1C(=O)N2OS(=O)(=O)O [Example 22]
IC50 [1]: 520 nM | IC50 [2, 4]: 225 nM

CN1CCC(NC(=O)[C@@H]2CC[C@@H]3CN2C(=O)N3OS(=O)(=O)O)CC1 [Example 23]
IC50 [1, 3]: 500 nM | IC50 [2, 4]: 240 nM

O=C(N[C@H]1CCNC[C@@H]1F)[C@@H]1CC[C@@H]2CN1C(=O)N2OS(=O)(=O)O [Example 24]
IC50 [1]: 110 nM | IC50 [2, 4]: 90 nM

O=C(N[C@@H]1CCNC[C@@H]1F)[C@@H]1CC[C@@H]2CN1C(=O)N2OS(=O)(=O)O [Example 25]
IC50 [1]: 20 nM | IC50 [2, 4]: 270 nM

CO[C@H]1CNCC[C@H]1NC(=O)[C@@H]1CC[C@@H]2CN1C(=O)N2OS(=O)(=O)O [Example 26]
IC50 [1]: 120 nM | IC50 ([2]; K.p. KPC-2 IC50, Table 3): 290 nM

O=C(NC1CCS(=O)(=O)CC1)[C@@H]1CC[C@@H]2CN1C(=O)N2OS(=O)(=O)O [Example 27]
IC50 [1, 3]: 9.5 nM | IC50 [2, 4]: 150 nM

N[C@@H]1CNC[C@H]1NC(=O)[C@@H]1CC[C@@H]2CN1C(=O)N2OS(=O)(=O)O [Example 28]
IC50 [1, 3]: 740 nM | IC50 [2, 4]: 660 nM

O=C(N[C@@H]1CNC[C@H]1O)[C@@H]1CC[C@@H]2CN1C(=O)N2OS(=O)(=O)O [Example 29]
IC50 [1, 3]: 2500 nM | IC50 [2, 4]: 250 nM

O=C(N[C@@H]1CNC[C@@H]1O)[C@@H]1CC[C@@H]2CN1C(=O)N2OS(=O)(=O)O [Example 30]
IC50 [1, 3]: 2250 nM | IC50 [2, 4]: 520 nM

O=C(N[C@@H]1CNC[C@@H]1F)[C@@H]1CC[C@@H]2CN1C(=O)N2OS(=O)(=O)O [Example 31]
IC50 [1]: 150 nM | IC50 ([2]; K.p. KPC-2 IC50, Table 3): 190 nM

O=C(N[C@H]1CNC[C@H]1F)[C@@H]1CC[C@@H]2CN1C(=O)N2OS(=O)(=O)O [Example 32]
IC50 [1]: 19 nM | IC50 ([2]; K.p. KPC-2 IC50, Table 3): 710 nM

O=C(N[C@H]1CCN(C2CCNCC2)C1=O)[C@@H]1CC[C@@H]2CN1C(=O)N2OS(=O)(=O)O [Example 33]
IC50 [1]: 620 nM | IC50 [2, 4]: 21 nM

O=C(N[C@@H]1CCN(C2CCNCC2)C1=O)[C@@H]1CC[C@@H]2CN1C(=O)N2OS(=O)(=O)O [Example 34]
IC50 [1]: 45 nM | IC50 [2, 4]: 280 nM

O=C(N[C@@H]1CCCNC[C@@H]1F)[C@@H]1CC[C@@H]2CN1C(=O)N2OS(=O)(=O)O [Example 35]
IC50 [1, 3]: 13 nM | IC50 [2, 4]: 150 nM

O=C(N[C@H]1CCCNC[C@H]1F)[C@@H]1CC[C@@H]2CN1C(=O)N2OS(=O)(=O)O [Example 36]
IC50 [1, 3]: 18 nM | IC50 [2, 4]: 130 nM

O=C(NCC1(F)CNC1)[C@@H]1CC[C@@H]2CN1C(=O)N2OS(=O)(=O)O [Example 37]
IC50 [1, 3]: 40 nM | IC50 [2, 4]: 120 nM

O=C(NCC1CCCN1)[C@@H]1CC[C@@H]2CN1C(=O)N2OS(=O)(=O)O (stereo partly drawn) [Example 38]
IC50 [1, 3]: 250 nM | IC50 [2, 4]: 120 nM

O=C(NCC1CCCCN1)[C@@H]1CC[C@@H]2CN1C(=O)N2OS(=O)(=O)O (stereo partly drawn) [Example 39]
IC50 [1, 3]: 530 nM | IC50 [2, 4]: 190 nM

O=C(NCC1CCNCC1)[C@@H]1CC[C@@H]2CN1C(=O)N2OS(=O)(=O)O [Example 40]
IC50 [1, 3]: 30 nM | IC50 ([2]; K.p. KPC-2 IC50, Table 3): 77 nM

O=C(NC(CO)C1CCNCC1)[C@@H]1CC[C@@H]2CN1C(=O)N2OS(=O)(=O)O (stereo partly drawn) [Example 41]
IC50 [1]: 700 nM | IC50 [2, 4]: 320 nM

O=C(NC[C@@H]1CNCCCO1)[C@@H]1CC[C@@H]2CN1C(=O)N2OS(=O)(=O)O [Example 42]
IC50 [1]: 100 nM | IC50 ([2]; K.p. KPC-2 IC50, Table 3): 110 nM

O=C(NC[C@H]1CNCCCO1)[C@@H]1CC[C@@H]2CN1C(=O)N2OS(=O)(=O)O [Example 43]
IC50 [1]: 15 nM | IC50 ([2]; K.p. KPC-2 IC50, Table 3): 100 nM

O=C(NCCC1CCNCC1)[C@@H]1CC[C@@H]2CN1C(=O)N2OS(=O)(=O)O [Example 44]
IC50 [1, 3]: 11 nM | IC50 [2, 4]: 45 nM

O=C(NCCN1CCCCC1)[C@@H]1CC[C@@H]2CN1C(=O)N2OS(=O)(=O)O [Example 45]
IC50 [1, 3]: 180 nM | IC50 [2, 4]: 150 nM

O=C(NCCN1CCNCC1)[C@@H]1CC[C@@H]2CN1C(=O)N2OS(=O)(=O)O [Example 46]
IC50 [1, 3]: 42 nM | IC50 [2, 4]: 96 nM

O=C(NC1C2CNCC21)[C@@H]1CC[C@@H]2CN1C(=O)N2OS(=O)(=O)O (stereo partly drawn) [Example 47]
IC50 [1, 3]: 720 nM | IC50 [2, 4]: 10000 nM

CN(C(=O)[C@@H]1CC[C@@H]2CN1C(=O)N2OS(=O)(=O)O)C1CCNCC1 [Example 48]
IC50 [1, 3]: 290 nM | IC50 [2, 4]: 2500 nM

NCC1CCCCN1C(=O)[C@@H]1CC[C@@H]2CN1C(=O)N2OS(=O)(=O)O (stereo partly drawn) [Example 49]
IC50 [1, 3]: 7500 nM | IC50 [2, 4]: 780 nM

NC1CCN(C(=O)[C@@H]2CC[C@@H]3CN2C(=O)N3OS(=O)(=O)O)CC1 [Example 50]
IC50 [1, 3]: 820 nM | IC50 [2, 4]: 8 nM

O=C([C@@H]1CC[C@@H]2CN1C(=O)N2OS(=O)(=O)O)N1CCNCC1 [Example 51]
IC50 [1, 3]: 2200 nM | IC50 [2, 4]: 520 nM

O=C([C@@H]1CC[C@@H]2CN1C(=O)N2OS(=O)(=O)O)N1CC2(CCNCC2)C1 [Example 52]
IC50 [1]: 590 nM | IC50 [2, 4]: 1000 nM

O=C([C@@H]1CC[C@@H]2CN1C(=O)N2OS(=O)(=O)O)N1CC2CNCC2C1 (stereo partly drawn) [Example 53]
IC50 [1]: 1000 nM | IC50 [2, 4]: 33 nM

N[C@@H]1CCN(C(=O)[C@@H]2CC[C@@H]3CN2C(=O)N3OS(=O)(=O)O)C1 [Example 54]
IC50 [1, 3]: 840 nM | IC50 [2, 4]: 3200 nM

N[C@H]1CCN(C(=O)[C@@H]2CC[C@@H]3CN2C(=O)N3OS(=O)(=O)O)C1 [Example 55]
IC50 [1, 3]: 1400 nM | IC50 [2, 4]: 1500 nM

CN(C)C1CCN(C(=O)[C@@H]2CC[C@@H]3CN2C(=O)N3OS(=O)(=O)O)C1 (stereo partly drawn) [Example 56]
IC50 [1, 3]: 270 nM | IC50 [2, 4]: 1600 nM

NCc1ccc(NC(=O)[C@@H]2CC[C@@H]3CN2C(=O)N3OS(=O)(=O)O)cc1 [Example 57]
IC50 [1, 3]: 20 nM | IC50 [2, 4]: 72 nM

NCc1cccc(NC(=O)[C@@H]2CC[C@@H]3CN2C(=O)N3OS(=O)(=O)O)c1 [Example 58]
IC50 [1]: 34 nM | IC50 [2, 4]: 104 nM

NCc1ccccc1NC(=O)[C@@H]1CC[C@@H]2CN1C(=O)N2OS(=O)(=O)O [Example 59]
IC50 [1]: 292 nM | IC50 [2, 4]: 109 nM
